Experimental data as given in patent EP3315130A1, “HYALURONIC ACID COMPOSITION INCLUDING MEPIVACAINE” (Laboratoires Vivacy, priority 2016, dated 2018).

Columns and labels:
ecchymose = test: Clinical evaluation of occurrence and severity of ecchymosis after injection of hyaluronic acid compositions; design: species or system patients; details: human, in vivo
Experimental: (§1) Deux types de composition aqueuse à base d'acide hyaluronique (concentration 20 mg/g) sont préparés.
(§2) Toutes les compositions sont issues d'un mélange monophasique tel que celui décrit dans la demande de brevet WO 2009/071697 au nom de la demanderesse, et comprennent du mannitol (concentration 35 mg/g).
(§3) Deux groupes A et B de 64 patients chacun sont formés (128 patients au total).
(§4) Le groupe B est injecté au niveau du sillon naso-génien au moyen de la composition aqueuse à base d'acide hyaluronique comprenant du mannitol et de la mépivacaïne

oedème = test: Clinical evaluation of occurrence and severity of oedema after injection of hyaluronic acid compositions; design: species or system patients; details: human, in vivo
Experimental: as §1, §2, §3, §4

mépïvacaïne
Ecchymose - Aucune (ecchymose): 42 | Ecchymose - Légère ou modérée (ecchymose): 22 | Ecchymose - Sévère (ecchymose): 0 | OEdème - Aucun (oedème): 63 | OEdème - Léger ou modéré (oedème): 1 | OEdème - Sévère (oedème): 0
